Assay results as given in US12590108B2, “Boracic acid compound” (Phaeno Therapeutics Co., Ltd, priority 2020, dated 2026).
Read-outs that look alike come from different tables or passages of the source.

Tests used:
[1] = system: Klebsiella pneumoniae ATCC BAA-2470 (NDM-1); assay: MIC shift, liquid microdilution, meropenem fixed at 4 μg/mL; format: cell-based; conditions: K. pneumoniae ATCC BAA-2470, NDM-1
Method: (§1) The test compound was tested for minimum inhibitory concentration against three strains of Klebsiella pneumoniae ATCC BAA-1705 (KPC-2), ATCC BAA-2470 (NDM-1), and ARLG-1196 (CTM-1 group, SHV, NDM, TEM), and one strain of Escherichia coli ARLG-2829 (NDM-5, OXA-1). According to the requirements of the Institute of Clinical And Laboratory Standard (CLSI), the minimum inhibitory concentration (MIC) of each drug combination was determined by liquid microdilution method under the premise of fixing the concentration of meropenem at 4 μg/mL.
(§2) Preparation of compound mother plate: On the day of the experiment, the compound to be tested (the final concentration was 0.3125 to 20 μg/mL) and meropenem (the final concentration ranged from 1 to 64 μg/mL) were dissolved in a corresponding solvent (sterile ddH2O or DMSO) to form 100× mother liquors with the highest test concentration, and the compound to be tested and meropenem were then subjected to 2-fold series gradient dilution in a V-bottom 96-well plate to obtain 100× working solutions with the final concentration.
(§3) Preparation of inoculation solution: Fresh bacterial clones were picked from an overnight Mueller Hinton II Agar medium (MHA, Cat. No. 211438, BD BBLTM) plate, suspended in sterilized physiological saline, and adjusted to a concentration of 1×10^8 CFU/mL, and the suspension was further diluted to 5-10^5 CFU/mL with Cation-Adjusted Mueller Hinton II Broth (MHB, Catalog #212332, BD BBLTM).
(§4) Detection of minimum inhibitory concentration (MIC): 1 μL of the compound to be tested and the meropenem working solution were transferred to the corresponding wells to be tested in a round-bottomed 96-well plate (Catalog #3788, Corning), and 98 μL of the inoculation solution was added to the round-bottomed 96-well plate containing drugs, which was an MIC test plate; and after the plate was inverted and cultured at 37° C. for 20-24 h, the MIC value was read, and the minimum inhibitory concentration for inhibiting bacterial growth was defined as MIC.

[2] = system: Klebsiella pneumoniae ARLG-1196 (CTM-1 group, SHV, NDM, TEM); assay: as above; format: cell-based
Method: as §1, §2, §3, §4

[3] = system: Escherichia coli ARLG-2829 (NDM-5, OXA-1); assay: as above; format: cell-based
Method: as §1, §2, §3, §4

[4] = system: Klebsiella pneumoniae ATCC BAA-1705 (KPC-2); assay: as above; format: cell-based; conditions: K. pneumoniae ATCC BAA-1705, KPC-2
Method: as §1, §2, §3, §4

[5] = system: Klebsiella pneumoniae ATCC BAA-1705; assay: Mouse thigh muscle infection model, bacterial load; format: in vivo, CD-1 female mice; conditions: endpoint 12 h
Method: 36 CD-1 female mice were divided into 12 cages with 3 […] in each cage. The day of infection was denoted as day 0.
Immunosuppressant cyclophosphamide at 150 mg/kg was injected intraperitoneally on day −4 and immunosuppressant cyclophosphamide at 100 mg/kg was injected intraperitoneally on day −1 to induce immunodeficient mice.
On day −1, the strain Klebsiella pneumoniae ATCC BAA-1705 was resuscitated on an MHA plate. Resuscitated colonies were picked and dissolved in sterile physiological saline to prepare a bacterial solution with a concentration of 5.6E+07 CFU/mL for thigh muscle infection in mice. The initial time of infection was denoted as 0 h, and 100 μL of the bacterial solution was injected into each mouse at the thigh muscle at 0 h, that is, the inoculation amount was 5.6E+06 CFU/mouse. 2 h after infection, dosing was performed according to the experimental scheme. The specific experimental scheme was as follows (see Table 4): • (1) 2 h after infection: for the 1st cage of mice, at the endpoint, thigh muscle tissue was taken and placed in 10 mL of sterile physiological saline, the tissue was homogenized by a homogenizer, and the homogenate was diluted in a gradient and spotted in a plate, with two replicates for each mouse. • (2) 2 h after infection: the 2nd to 12th cages were respectively treated at 10 mL/kg by volume according to the body weight of the mice, the 2nd cage of mice were given a vehicle by intravenous injection every 2 h, and the endpoint was 12 h; the 3rd cage of mice were given 100 mg/kg of meropenem by intravenous injection every 2 h, and the endpoint was 12 h; the 4th cage of mice were given 100 mg/kg of meropenem and 20 mg/kg of QPX7728 by intravenous injection every 2 h, and the endpoint was 12 h; the 5th cage of mice were given 100 mg/kg of meropenem and 100 mg/kg of compound 15 by intravenous injection every 2 h, and the endpoint was 12 h; the 6th cage of mice were given 100 mg/kg of meropenem and 20 mg/kg of compound 15 by intravenous injection every 2 h, and the endpoint was 12 h; the 7th cage of mice were given 100 mg/kg of meropenem and 4 mg/kg of compound 15 by intravenous injection every 2 h, and the endpoint was 12 h; the 8th cage of mice were given 100 mg/kg of cefepime by intravenous injection every 2 h, and the endpoint was 12 h; the 9th cage of mice were given 100 mg/kg of cefepime and 20 mg/kg of QPX7728 by intravenous injection every 2 h, and the endpoint was 12 h; the 10th cage of mice were given 100 mg/kg of cefepime and 100 mg/kg of compound 15 by intravenous injection every 2 h, and the endpoint was 12 h; the 11th cage of mice were given 100 mg/kg of cefepime and 20 mg/kg of compound 15 by intravenous injection every 2 h, and the endpoint was 12 h; and the 12th cage of mice were given 100 mg/kg of cefepime and 4 mg/kg of compound 15 by intravenous injection every 2 h, and the endpoint was 12 h. At the endpoint of 12 h, thigh muscle tissue was taken and placed in 10 mL of sterile physiological saline, the tissue was homogenized by a homogenizer, and the homogenate was diluted in a gradient and spotted in a plate, with two replicates for each mouse. The bacterial load in the thigh muscle tissue of the mice was counted, and the experiment was summarized as follows (see Table 5): […]

[6] = compound + meropenem fixed at 4 μg/mL

| SMILES | MIC ([1]; Klebsiella pneumoniae, ATCCBAA2470, meropenem alone, read-out: MIC) [µg/mL] | MIC ([2]; Klebsiella pneumoniae, meropenem alone, K. pneumoniae ARLG-1196, read-out: MIC) [µg/mL] | MIC ([3]; Escherichia coli, meropenem alone, E. coli ARLG-2829, read-out: MIC) [µg/mL] | MIC ([4]; Klebsiella pneumoniae, ATCCBAA1705, meropenem alone, read-out: MIC) [µg/mL] | Average CFU in mice (thigh muscle tissue) ([5]; antibiotic alone 100 mg/kg i.v. q2h) [CFU/mouse] | MIC [1, 6] [µg/mL] | MIC ([2]; compound + meropenem fixed at 4 μg/mL, K. pneumoniae ARLG-1196, CTM-1 and isoforms thereof, SHV, NDM, TEM) [µg/mL] | MIC ([3]; compound + meropenem fixed at 4 μg/mL, E. coli ARLG-2829 (urine clinical isolate), NDM-5, OXA-1) [µg/mL] | MIC [4, 6] [µg/mL] | Average CFU in mice (thigh muscle tissue) ([5]; cefepime 100 mg/kg + inhibitor 4 mg/kg i.v. q2h) [CFU/mouse] | Average CFU in mice (thigh muscle tissue) ([5]; cefepime 100 mg/kg + inhibitor 20 mg/kg i.v. q2h) [CFU/mouse] | Average CFU in mice (thigh muscle tissue) ([5]; cefepime 100 mg/kg + inhibitor 100 mg/kg i.v. q2h) [CFU/mouse] | Average CFU in mice (thigh muscle tissue) ([5]; meropenem 100 mg/kg + inhibitor 4 mg/kg i.v. q2h) [CFU/mouse] | Average CFU in mice (thigh muscle tissue) ([5]; meropenem 100 mg/kg + inhibitor 20 mg/kg i.v. q2h) [CFU/mouse] | Average CFU in mice (thigh muscle tissue) ([5]; meropenem 100 mg/kg + inhibitor 100 mg/kg i.v. q2h) [CFU/mouse] |
| --- | --- | --- | --- | --- | --- | --- | --- | --- | --- | --- | --- | --- | --- | --- | --- |
| C[C@@H](O)[C@H]1C(=O)N2C(C(=O)O)=C(S[C@@H]3CN[C@H](C(=O)N(C)C)C3)[C@H](C)[C@H]12 [Meropenem, meropenem, reference compound] | 64 | 64 | > 64 | 32 | 4.83E+08 |  |  |  |  |  |  |  |  |  |  |
| CCOc1ccc2c(c1C(=O)O)O[B-](O)(O)CO2 [Compound 15] |  |  |  |  |  | 0.625 | 0.625 | 1.25 | ≤0.3125 | 5.68E+06 | 2.06E+06 | 1.24E+06 | 1.65E+07 | 4.08E+06 | 2.02E+06 |
